Test results taken from patent US10493030B2 (priority 2015, dated 2019).

How the values were obtained:
[1] = system: HIV; settings: some HIV-infected patients; cited from earlier work
[2] = system: transcription factor SP1; assay: activation of transcription factor SP1, combination with valproic acid; format: cell-based; settings: low concentrations; with HDAC inhibitor valproic acid
[3] = system: HIV-1; settings: low concentrations; cited from earlier work
[4] = system: PBMC isolated from HIV-1 patients; assay: HIV-1 latency ex vivo in PBMC isolated from HIV-1 patients; format: cell-based, human
[5] = system: Jurkat-LAT-GFP; assay: in vitro model of HIV-1 latency, Jurkat-LAT-GFP; format: cell-based
[6] = system: classical PKCs pathways; assay: cPKC translocation and signalling pathway activation in T cells; format: cell-based
From the text: Low concentrations of Bryostatin-1 activate the cPKC-Ras-Raf-ERK pathway and synergize with an HDAC inhibitor, valproic acid (VPA), to activate the transcription factor SP1.

[7] = Phase I clinical study in HIV-1 patients (NCT02269605); format: in vivo, human; settings: doses of 10 and 20 μg/m2
[8] = system: T cells; assay: transcriptome studies in T cells; format: cell-based; settings: 10 and 100 nM
[9] = system: human HIV-1 receptors CD4 and CXCR4; settings: low concentrations; cited from earlier work
[10] = system: HIV-1 latency; settings: very low concentrations (1-10 nM); in vitro; cited from earlier work
[11] = concentrations higher than 10 nM

Compound	HIV transcription from latency [1]	synergy with valproic acid (VPA) to activate the transcription factor SP1 [2]	de novo HIV-1 infection [3]	HIV-1 latency ex vivo [4]	reactivation of HIV-1 latency in T cells ([5]; Jurkat-LAT-GFP, via classical PKCs pathways)	reactivation of HIV-1 latency ([5]; lower concentrations (10 nM), ERK activation and nuclear phosphorylation of p65)	activation of NF-κB and MAPKs (JNK and ERK) pathways [6, 11]	translocation of cPKCs [6, 11]	translocation of cPKCs and Ras-GRP1 ([6]; lower concentrations (10 nM))	adverse events [7]	gene expression in T cells, low vs. high concentrations [8]	expression of the human HIV-1 receptors CD4 and CXCR4 [9]	synergy with HDAC inhibitors such as valproic acid to antagonise HIV-1 latency [10]
O=C(CCCCCCC(=O)Nc1ccccc1)NO [Vorinostat]	significant and sustained increase in HIV transcription from latency												
CCC/C=C/C=C/C(=O)O[C@H]1/C(=C/C(=O)OC)C[C@H]2C[C@H]([C@@H](C)O)OC(=O)C[C@H](O)C[C@@H]3C[C@H](OC(C)=O)C(C)(C)[C@](O)(C[C@@H]4C/C(=C/C(=O)OC)C[C@H](/C=C/C(C)(C)[C@]1(O)O2)O4)O3 [Bryostatin-1]		synergize	prevent de novo HIV-1 infection	antagonized HIV-1 latency	re-activates HIV-1 latency	fully reactivates HIV-1 latency	activated the canonical NF-κB and MAPKs (JNK and ERK) pathways	induced translocation of cPKCs to the plasma membrane	translocated cPKCs and Ras-GRP1 to the endoplasmic reticulum	did not induced significant adverse events	differentially regulate gene expression	down-regulated	synergizes
